Experimental data as given in ChEMBL document CHEMBL5625249, “Optimization and antifungal activity of quinoline derivatives linked to chalcone moiety combined with FLC against Candida albicans” (Eur J Med Chem, 2023).
Values after ≈ are worked out from the molar mass of the structure shown. Active and inactive are the calls of the source. The rule behind the calls is not given here.

What was measured:
Candida albicans [1] = experiment: Antifungal activity against FLC-resistant Candida albicans ATCC 14053 assessed as inhibition of hyphal formation by measuring down regulation of EFG1 gene expression at 8 ug/ml measured after 16 to 18 hrs by qRT-PCR analysis; assay type: functional, organism-based; conditions: dose 8.0 µg/ml, time 16-18 hrs
[2] = Toxicity in Balb/c mouse assessed as weight loss at 2 mg/kg, ig measured daily for 6 days; assay type: organism-based; conditions: in vivo, po, 144 h, time 6 day
Candida albicans [3] = experiment: Antifungal activity against FLC-sensitive Candida albicans SC5314 measured after 24 hrs by microdilution method; assay type: functional
Candida albicans [4] = experiment: In vivo antifungal activity against FLC-resistant Candida albicans ATCC 14053 infected in Balb/c mouse assessed as reduction in kidney fungal load at 2 mg/kg, ig measured after 6 days; assay type: functional, organism-based; conditions: time 6.0 day
Candida albicans [5] = experiment: Antifungal activity against clinical FLC-resistant Candida albicans 3816 measured after 24 hrs by microdilution method; assay type: functional
Candida albicans [6] = experiment: Induction of mitochondrial membrane potential loss in FLC-resistant Candida albicans ATCC 14053 at 1 ug/mL measured after 16 to 18 hrs by JC-1 staining based fluorescence assay; assay type: functional, organism-based; conditions: dose 1.0 µg/ml, time 16-18 hrs
Candida albicans [7] = experiment: Antifungal activity against FLC-resistant Candida albicans ATCC 14053 measured after 24 hrs by microdilution method; assay type: functional
Candida albicans [8] = experiment: Antifungal activity against clinical FLC-resistant Candida albicans 4508 measured after 24 hrs by microdilution method; assay type: functional
Candida albicans [9] = experiment: Antifungal activity against FLC-resistant Candida albicans ATCC 14053 assessed as inhibition of hyphal formation by measuring down regulation of HWP1 gene expression at 8 ug/ml measured after 16 to 18 hrs by qRT-PCR analysis; assay type: functional, organism-based; conditions: dose 8.0 µg/ml, time 16-18 hrs
Candida albicans [10] = experiment: Antifungal activity against FLC-resistant Candida albicans ATCC 14053 assessed as reduction in intracellular ATP level at 1 ug/ml measured after 16 to 18 hrs by luminescence assay; assay type: functional, organism-based; conditions: dose 1.0 µg/ml, time 16-18 hrs
Candida albicans [11] = experiment: Antifungal activity against FLC-resistant Candida albicans ATCC 14053 assessed as inhibition of hyphal formation by measuring down regulation of RAS1 gene expression at 8 ug/ml measured after 16 to 18 hrs by qRT-PCR analysis; assay type: functional, organism-based; conditions: dose 8.0 µg/ml, time 16-18 hrs
Candida albicans [12] = experiment: Antifungal activity against FLC-resistant Candida albicans ATCC 14053 cultured in spider medium assessed as inhibition of hyphal formation at 1 ug/ml measured after 2 hrs by inverted microscopy; assay type: functional, organism-based; conditions: dose 1.0 µg/ml
Candida albicans [13] = experiment: Antifungal activity against FLC-resistant Candida albicans ATCC 10231 measured after 24 hrs by microdilution method; assay type: functional
Candida albicans [14] = experiment: In vivo antifungal activity against FLC-resistant Candida albicans ATCC 14053 infected in Balb/c mouse assessed as increase in organ coefficients of spleen at 2 mg/kg, ig measured after 6 days; assay type: functional, organism-based; conditions: time 6.0 day
Candida albicans [15] = experiment: Induction of reactive oxygen species production in FLC-resistant Candida albicans ATCC 14053 at 1 ug/mL measured after 16 to 18 hrs by DCFH-DA staining based fluorescence assay; assay type: functional, organism-based; conditions: dose 1.0 µg/ml, time 16-18 hrs
Candida albicans [16] = experiment: In vivo antifungal activity against FLC-resistant Candida albicans ATCC 14053 infected in Balb/c mouse assessed as survival rate at 2 mg/kg, ig measured daily for 6 days (Rvb < 20%); assay type: functional; conditions: ATCC 14053, po, 144 h, time 6 day
Candida albicans [17] = experiment: Antifungal activity against Clinical FLC-resistant Candida albicans 23 measured after 24 hrs by microdilution method; assay type: functional
Candida albicans [18] = experiment: In vivo antifungal activity against FLC-resistant Candida albicans ATCC 14053 infected in Balb/c mouse assessed as restoration of normal glomeruli morphology at 2 mg/kg, ig measured after 6 days by H and E staining based histopathological analysis; assay type: functional, organism-based; conditions: time 6.0 day
Candida albicans [19] = experiment: In vivo antifungal activity against FLC-resistant Candida albicans ATCC 14053 infected in Balb/c mouse assessed as reduction in severity of lesions in lungs at 2 mg/kg, ig measured after 6 days by H and E staining based histopathological analysis; assay type: functional, organism-based; conditions: time 6.0 day
Candida albicans [20] = experiment: Antifungal activity against FLC-resistant Candida albicans ATCC 14053 cultured in SD +10% FBS liquid medium assessed as inhibition of hyphal formation at 1 ug/ml measured after 2 hrs by inverted microscopy; assay type: functional, organism-based; conditions: dose 1.0 µg/ml
Candida albicans [21] = experiment: Antifungal activity against FLC-resistant Candida albicans ATCC 14053 assessed as inhibition of hyphal formation by measuring down regulation of ECE1 gene expression at 8 ug/ml measured after 16 to 18 hrs by qRT-PCR analysis; assay type: functional, organism-based; conditions: dose 8.0 µg/ml, time 16-18 hrs
Candida albicans [22] = experiment: In vivo antifungal activity against FLC-resistant Candida albicans ATCC 14053 infected in Balb/c mouse assessed as increase in organ coefficients of thymus at 2 mg/kg, ig measured after 6 days; assay type: functional, organism-based; conditions: time 6.0 day
Candida albicans [23] = experiment: Antifungal activity against clinical FLC-resistant Candida albicans 799 measured after 24 hrs by microdilution method; assay type: functional
[24] = Toxicity in Balb/c mouse infected with FLC-resistant Candida albicans ATCC 14053 assessed as weight loss at 2 mg/kg, ig measured daily for 6 days; assay type: organism-based; conditions: in vivo, po, 144 h, time 6 day
Candida albicans [25] = experiment: Antifungal activity against clinical FLC-resistant Candida albicans 381 measured after 24 hrs by microdilution method; assay type: functional
Candida albicans [26] = experiment: In vivo antifungal activity against FLC-resistant Candida albicans ATCC 14053 infected in Balb/c mouse assessed as removal of colonized fungi at 2 mg/kg, ig measured after 6 days by H and E staining based histopathological analysis; assay type: functional, organism-based; conditions: time 6.0 day
Candida albicans [27] = experiment: Antifungal activity against clinical FLC-resistant Candida albicans 4574 measured after 24 hrs by microdilution method; assay type: functional
Candida albicans [28] = experiment: Antifungal activity against FLC-resistant Candida albicans ATCC 14053 assessed as inhibition of hyphal formation by measuring down regulation of ALS3 gene expression at 8 ug/ml measured after 16 to 18 hrs by qRT-PCR analysis; assay type: functional, organism-based; conditions: dose 8.0 µg/ml, time 16-18 hrs
Candida albicans [29] = experiment: Antifungal activity against clinical FLC-resistant Candida albicans 800 measured after 24 hrs by microdilution method; assay type: functional
Candida albicans [30] = experiment: Antifungal activity against FLC-resistant Candida albicans ATCC 14053 assessed as inhibition of hyphal formation by measuring down regulation of CYR1 gene expression at 8 ug/ml measured after 16 to 18 hrs by qRT-PCR analysis; assay type: functional, organism-based; conditions: dose 8.0 µg/ml, time 16-18 hrs
Candida albicans [31] = experiment: In vivo antifungal activity against FLC-resistant Candida albicans ATCC 14053 infected in Balb/c mouse assessed as restoration of normal kidney morphology at 2 mg/kg, ig measured after 6 days by H and E staining based histopathological analysis; assay type: functional, organism-based; conditions: time 6.0 day
Candida albicans [32] = experiment: In vivo antifungal activity against FLC-resistant Candida albicans ATCC 14053 infected in Balb/c mouse assessed as reduction in infiltration of inflammatory cells at 2 mg/kg, ig measured after 6 days by H and E staining based histopathological analysis; assay type: functional, organism-based; conditions: time 6.0 day
Candida albicans [33] = experiment: In vivo antifungal activity against FLC-resistant Candida albicans ATCC 14053 infected in Balb/c mouse assessed as reduction in lung fungal load at 2 mg/kg, ig measured after 6 days; assay type: functional, organism-based; conditions: time 6.0 day
Candida albicans [34] = experiment: In vivo antifungal activity against FLC-resistant Candida albicans ATCC 14053 infected in Balb/c mouse assessed as reduction in renal injury at 2 mg/kg, ig measured after 6 days by H and E staining based histopathological analysis; assay type: functional, organism-based; conditions: time 6.0 day
Candida albicans [35] = experiment: In vivo antifungal activity against FLC-resistant Candida albicans ATCC 14053 infected in Balb/c mouse assessed as reduction in severity of lesions in kidney at 2 mg/kg, ig measured after 6 days by H and E staining based histopathological analysis; assay type: functional, organism-based; conditions: time 6.0 day
Candida albicans [36] = experiment: Antifungal activity against clinical FLC-resistant Candida albicans 3511 measured after 24 hrs by microdilution method; assay type: functional
[37] = Toxicity in Balb/c mouse assessed as death at 2 mg/kg, ig measured daily for 6 days; assay type: organism-based; conditions: in vivo, po, 144 h, time 6 day
Candida albicans [38] = experiment: Antifungal activity against clinical FLC-resistant Candida albicans 808 measured after 24 hrs by microdilution method; assay type: functional
Candida albicans [39] = experiment: Antifungal activity against clinical FLC-resistant Candida albicans 187 measured after 24 hrs by microdilution method; assay type: functional
Candida albicans [40] = experiment: Antifungal activity against FLC-resistant Candida albicans ATCC 14053 at 1 ug/mL measured over 48 hrs by time-killing assay; assay type: functional, organism-based; conditions: dose 1.0 µg/ml
Candida albicans [41] = experiment: Antifungal activity against clinical FLC-resistant Candida albicans 602 measured after 24 hrs by microdilution method; assay type: functional
Candida albicans [42] = experiment: In vivo antifungal activity against FLC-resistant Candida albicans ATCC 14053 infected in Balb/c mouse assessed as restoration of normal lung morphology at 2 mg/kg, ig measured after 6 days by H and E staining based histopathological analysis; assay type: functional, organism-based; conditions: time 6.0 day
Candida albicans [43] = experiment: Antifungal activity against clinical FLC-resistant Candida albicans 550 measured after 24 hrs by microdilution method; assay type: functional

OC(Cn1cncn1)(Cn1cncn1)c1ccc(F)cc1F [FLUCONAZOLE]
inhibition (Candida albicans [1]): Active
Activity [2]: Non-Toxic
MIC80 (Candida albicans [3]): 5.79 µg/mL (≈ 18.9 µM)
Activity (Candida albicans [4]): Active
MIC80 (Candida albicans [5]): > 40 µg/mL
Activity (Candida albicans [6]): Active
MIC80 (Candida albicans [7]): > 40 µg/mL
MIC80 (Candida albicans [8]): > 40 µg/mL
inhibition (Candida albicans [9]): Active
Activity (Candida albicans [10]): Active
inhibition (Candida albicans [11]): Active
inhibition (Candida albicans [12]): inactive
MIC80 (Candida albicans [13]): > 40 µg/mL
Activity (Candida albicans [14]): Active
Activity (Candida albicans [15]): Active
survival at 2 mg/kg (Candida albicans [16]): 30%
MIC80 (Candida albicans [17]): > 40 µg/mL
Activity (Candida albicans [18]): inactive
Activity (Candida albicans [19]): inactive
inhibition (Candida albicans [20]): inactive
inhibition (Candida albicans [21]): Active
Activity (Candida albicans [22]): Active
MIC80 (Candida albicans [23]): > 40 µg/mL
Activity [24]: Toxic
MIC80 (Candida albicans [25]): > 40 µg/mL
Activity (Candida albicans [26]): inactive
MIC80 (Candida albicans [27]): > 40 µg/mL
inhibition (Candida albicans [28]): Active
MIC80 (Candida albicans [29]): > 40 µg/mL
inhibition (Candida albicans [30]): Active
Activity (Candida albicans [31]): inactive
Activity (Candida albicans [32]): inactive
Activity (Candida albicans [33]): inactive
Activity (Candida albicans [34]): inactive
Activity (Candida albicans [35]): inactive
MIC80 (Candida albicans [36]): > 40 µg/mL
Activity [37]: Non-Toxic
MIC80 (Candida albicans [38]): > 40 µg/mL
MIC80 (Candida albicans [39]): > 40 µg/mL
Activity (Candida albicans [40]): Active
MIC80 (Candida albicans [41]): > 40 µg/mL
Activity (Candida albicans [42]): inactive
MIC80 (Candida albicans [43]): > 40 µg/mL
